The record followed here is publication PMC4770311, “Discovery and Characterization of GSK2801, a Selective Chemical Probe for the Bromodomains BAZ2A and BAZ2B” (Journal of Medicinal Chemistry, 2015).

What all share (assay type): binding
Experiment [1] deals with T1, BAZ2A (Homo sapiens, UniProt Q9UIF9).
T1 construct: Recombinant BAZ2A and BAZ2B bromodomains were expressed in; made in house; host or cells: E. coli
T1 sequence (Q9UIF9 1793-1897 limits assumed): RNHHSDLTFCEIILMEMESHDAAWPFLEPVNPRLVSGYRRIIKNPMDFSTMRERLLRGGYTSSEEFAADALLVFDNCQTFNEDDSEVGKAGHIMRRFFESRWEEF
Description: AlphaScreen assay BAZ2A. The note with it: average of three replicates ± SEM. As for the experimental part:
(§1) AlphaScreen: AlphaScreen was performed as described previously 10, with minor modifications from the manufacturers protocol (PerkinElmer, USA). Briefly, all reagents were diluted in the recommended buffer (50 mM HEPES, 100 mM NaCl, 0.1% BSA; pH = 7.4) supplemented with 0.05% CHAPS and allowed to equilibrate to room temperature prior to […]
(§2) Plates were sealed and incubated at room temperature for 30 min. 4 μL of streptavidin-coated donor beads (10ug/mL final) and 4 μL of nickel chelate acceptor beads (10 μg/ml final) were then added under low light conditions. Plates were foil sealed to protect from light, incubated at room temperature for 60 min and read on a PHERAstar FS plate reader (BMG Labtech, Germany) using an AlphaScreen 680 excitation/570 emission filter set.
(§3) Fragments were dissolved in ethylene glycol to overcome sensitivity of the bromodomain assay to DMSO and allow compounds to be screened at mM concentrations. IC50 […]
(§4) measurements were taken over a 12 point 1:2 serial dilution of compound. IC50s were calculated in GraphPad Prism 5 (GraphPad Software, USA). […]

Experiment [2] concerns the target T2, BRD4(1) (Homo sapiens, UniProt O60885).
T2 construct: […]
Description: AlphaScreen cross screening BRD4(1). The note with it: average of three replicates ± SEM. As for the experimental part: as §1, §2, §3, §4

For experiment [3], the target named is T3, BRD9 (Homo sapiens, UniProt Q9H8M2).
T3 construct: ITC experiments using the bromodomain of BRD9
Description: AlphaScreen cross screening BRD9. The note with it: average of three replicates ± SEM. As for the experimental part:
as §1, §2, §3, §4
Background: Alpha assays give light when donor and acceptor beads are brought close together.

For experiment [4], the target named is T4, TAF1L(2) (Homo sapiens, UniProt Q8IZX4).
T4 construct: the second bromodomain in TAF1L(2)
T4 sequence (Q8IZX4 1517-1626 limits assumed): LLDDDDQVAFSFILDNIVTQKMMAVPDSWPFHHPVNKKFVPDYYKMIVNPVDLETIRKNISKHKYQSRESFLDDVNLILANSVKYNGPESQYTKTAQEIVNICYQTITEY
Description: Isothermal titration calorimetry TAF1L(2). The note with it: ITC. The protocol:
Thermal stability shift assays: The recombinant bromodomains at 2 µM were mixed with 10 µM inhibitors. The assays and data evaluation for melting temperatures were performed using a Real-Time PCR Mx3005p machine (Stratagene) and the protocols previously […]
Isothermal titration calorimetry: All calorimetric titration experiments were carried out on VP-ITC (MicroCal) at 15 °C. The buffer condition used was 20 mM HEPES, pH 7.5, 150 mM NaCl and 0.5 mM TCEP. Titration was performed by injecting the proteins (200 µM) into a […]
Integrated heat of the titrations after corrected for the heat of dilution were analysed using the Origin program. The corrected data were fitted to a single binding site model using a nonlinear least-square minimization algorithm, and the binding parameters including reaction enthalpy changes (ΔH), reaction […] changes (TΔS), equilibrium dissociation constants (KD), stoichiometry (n) were calculated.
AlphaScreen: AlphaScreen was performed as described previously 10, with minor modifications from the manufacturers protocol (PerkinElmer, USA). […]
Plates were sealed and incubated at room temperature for 30 min. […] Plates were foil sealed to protect from light, incubated at room temperature for 60 min and read on a PHERAstar FS plate reader (BMG Labtech, Germany) using an AlphaScreen 680 excitation/570 emission filter set. […]
(Isothermal titration calorimetry measures the heat released or taken up as one component is titrated into another.)

In experiment [5] the target is T3, BRD9. Description: Isothermal titration calorimetry BRD9. The note with it: ITC. The protocol: VP-ITC (MicroCal) at 15 °C.
reaction cell containing the inhibitors (15 µM). Integrated heat of the titrations after corrected
modifications from the manufacturers protocol (PerkinElmer, USA). Briefly, all reagents were
final) were then added under low light conditions. Plates were foil sealed to protect from […]

Experiment [6] addresses T3, BRD9. Description: Thermal stability shift assay BRD9. The note with it: inhibitor concentration 10 μM; read-out: temperature shift (ΔTm) BRD9.

Several values for one entry are separate records, joined by “and”; a condition that tells them apart may be missing. Equal entries are not always repeated.

What is called IC50 is the concentration at which inhibition is half-maximal. In general, Kd refers to the constant that tells how readily two partners part at equilibrium. A low value points to tighter binding.

T3 sequence (Q9H8M2 136-240): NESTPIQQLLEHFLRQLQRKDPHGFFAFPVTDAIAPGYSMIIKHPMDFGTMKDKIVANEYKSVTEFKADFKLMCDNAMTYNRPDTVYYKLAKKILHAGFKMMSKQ

`COc1cccc(-c2cc(C(C)=O)n3ccccc23)c1` [Compound 3, 1-(1-(3-Methoxyphenyl)indolizin-3-yl)ethanone]: the IC50 in experiment [1] is greater than 30000 nM. Still for that read-out and setting: to `CC(=O)c1cc(-c2cccs2)c2ccccn12` [Compound 4, 1-(1-(Thiophen-2-yl)indolizin-3-yl)ethanone] belongs 8600 ± 10 nM; to `CC(=O)c1cc(-c2ccccc2O)c2ccccn12` [Compound 5, 1-(1-(2-hydroxyphenyl)indolizin-3-yl)ethanone], 7200 ± 60 nM; to `CC(=O)c1cc(-c2cccc(O)c2)c2ccccn12` [Compound 6, 1-(1-(3-hydroxyphenyl)indolizin-3-yl)ethanone], 3300 ± 50 nM. On to `CC(=O)c1cc(-c2ccccc2CO)c2ccccn12` [Compound 7, 1-(1-(2-(hydroxymethyl)phenyl)indolizin-3-yl)ethanone], for which the IC50 in experiment [2] amounted to 38900 ± 13300 nM; in experiment [3], 23700 ± 160 nM; in experiment [1] it was 1800 ± 50 nM. `CC(=O)c1cc(-c2cccc(C(N)=O)c2)c2ccccn12` [Compound 8, 3-(3-acetylindolizin-1-yl)benzamide]: half-maximal inhibition in experiment [1] (IC50) was put at 1800 ± 20 nM.

Regarding `COc1ccc(-c2cc(C(C)=O)n3ccccc23)c(CO)c1` [Compound 9, 1-(1-(2-(hydroxymethyl)-4-methoxyphenyl)indolizin-3-yl)ethanone], it took 1400 ± 10 nM to reach half-maximal inhibition in experiment [1] (IC50).

`CC(=O)c1cc(-c2ccc(CO)cc2)c2ccccn12` [Compound 10, 1-(1-(4-(hydroxymethyl)phenyl)indolizin-3-yl)ethanone]: half-maximal inhibition in experiment [1] (IC50) required 1200 ± 70 nM.

In the case of `CC(=O)c1cc(-c2ccc(N(C)C)cc2)c2ccccn12` [Compound 11, 1-(1-(4-(dimethylamino)phenyl)indolizin-3-yl)ethanone], in experiment [1], it took 1100 ± 70 nM to reach half-maximal inhibition (IC50). On to `CC(=O)c1cc(-c2ccccc2S(C)(=O)=O)c2ccccn12` [Compound 12, 1-(1-(2-(methylsulfonyl)phenyl)indolizin-3-yl)ethanone], for which the IC50 was greater than 50000 nM in experiment [2], 17900 ± 3850 nM in experiment [3] and 720 ± 70 nM in experiment [1]. Molecule `CC(=O)c1cc(-c2ccccc2CO)c2cc(C)ccn12` [Compound 13, 1-(1-(2-(hydroxymethyl)phenyl)-7-methylindolizin-3-yl)ethanone] registered an IC50 in experiment [1] of 1000 ± 90 nM. Consider `COc1ccn2c(C(C)=O)cc(-c3ccccc3CO)c2c1` [Compound 14, 1-(1-(2-(hydroxymethyl)phenyl)-7-methoxyindolizin-3-yl)ethanone], for which, in experiment [1], the IC50 came out at 1200 ± 10 nM. Still for that read-out and setting: to `CC(=O)c1cc(-c2ccccc2CO)c2cc(N3CCOCC3)ccn12` [Compound 15, 1-(1-(2-(hydroxymethyl)phenyl)-7-morpholinoindolizin-3-yl)ethanone] belongs 1700 ± 130 nM. Same read-out and setting: to `CC(=O)c1cc(-c2ccccc2CO)c2cc(C(N)=O)ccn12` [Compound 16, 3-acetyl-1-(2-(hydroxymethyl)phenyl)indolizine-7-carboxamide] belongs 4100 ± 90 nM; to `CC(=O)c1cc(-c2ccccc2CO)c2cc(Oc3ccccc3)ccn12` [Compound 17, 1-(1-(2-(hydroxymethyl)phenyl)-7-phenoxyindolizin-3-yl)ethanone], 4100 ± 60 nM. Consider `CC(=O)c1cc(-c2ccccc2S(C)(=O)=O)c2cc(CNC(=O)OC(C)(C)C)ccn12` [Compound 18, tert-butyl ((3-acetyl-1-(2-(methylsulfonyl)phenyl)indolizin-7-yl)methyl)carbamate], for which the concentration for half-maximal inhibition (IC50) was greater than 50000 nM in experiment [2], 1400 ± 40 nM in experiment [3] and 160 ± 50 nM in experiment [1]. As to `CCCOc1ccn2c(C(C)=O)cc(-c3ccccc3S(C)(=O)=O)c2c1` [Compound 19, 1-(1-(2-(methylsulfonyl)phenyl)-7-propoxyindolizin-3-yl)ethanone], the IC50 in experiment [2] and in experiment [3] was greater than 50000 nM throughout. Besides, the “binding enthalpy change ΔH TAF1L(2)” value in experiment [4] is on record as −8.6 (±0.02) kcal/mol. Also, the Kd in experiment [4] (listed as GSK2801) was 3200 nM and 3190 nM; in experiment [5] (listed as GSK2801), 1200 nM. In addition, the “binding enthalpy change ΔH BRD9” value in experiment [5] was −9.8 (±0.01) kcal/mol. In experiment [6], the ΔTm at 10 µM is 2.3 °C. On to `CC(=O)c1cc(-c2ccccc2S(C)(=O)=O)c2cc(Oc3ccccc3)ccn12` [Compound 20, 1-(1-(2-(methylsulfonyl)phenyl)-7-phenoxyindolizin-3-yl)ethanone], for which the IC50 in experiment [2] is greater than 50000 nM; in experiment [3] it was 19900 ± 1840 nM; in experiment [1], 550 nM. On the same counts, the results for `COc1ccn2c(C(C)=O)cc(-c3ccccc3S(C)(=O)=O)c2c1` [Compound 21, 1-(7-methoxy-1-(2-(methylsulfonyl)phenyl)indolizin-3-yl)ethanone] are greater than 50000 nM, greater than 50000 nM and 580 ± 50 nM. In experiment [1], `CC(=O)c1cc(-c2ccccc2S(C)(=O)=O)c2cc(C)ccn12` [Compound 22, 1-(7-methyl-1-(2-(methylsulfonyl)phenyl)indolizin-3-yl)ethanone] gave an IC50 of 890 nM. This counts as sub-micromolar.
